Patent publication US20260184710A1, “CASITAS B-LINEAGE LYMPHOMA PROTOONCOGENE B (CBL-B) DEGRADING COMPOUNDS AND ASSOCIATED METHODS OF USE” (Arvinas Operations, Inc., priority 2022, published 2026)

Biological target: T1, Cbl-b (Homo sapiens, UniProt Q13191)
T1 construct: Cbl-b-HiBit KI Jurkat Cells were purchased from Promega; host or cells: Cbl-b-HiBiT knock-in Jurkat cells
Assay: Cbl-b Degradation Method A (FACS, anti-Cbl-b antibody staining)
Assay type: cell-based
Details: Cbl-b-HiBit KI Jurkat Cells, incubated at least 20 hours; for DC50: half maximal degradation, read-out: Cbl-b Degredation Method A IC50; for Dmax: Jurkat, maximum degradation observed, read-out: Cbl-b Degredation Method A Dmax (%)
Procedure: Cbl-b Degradation Method A
Cbl-b-HiBit KI Jurkat Cells were purchased from Promega, and cell media consisted of RPMI 1640 with 10% FBS and 1% pen/strep. The cells were counted, measured for viability, and 100 μL of the cell solution was into 96 well flat bottom plates at a ratio of 290,000 cells per 100 μL. Compounds were dissolved in DMSO to make a 10 mM stock solution, which was diluted with cell media. 100 μL of the diluted compound mixture was added to the wells. The plate was incubated for at least 20 hours at 37° C. and 5% CO2. After incubation, the plate was shaken at 700-750 RMP for 15-30 minutes to ensure cells were removed from the wells. The wells were transferred to a 96-well v-bottom plate and spun for 2200 RPM for 3 minutes. The supernatant was removed, cells re-suspended in 100 μL of the fixative, and subsequently incubated at room temperature for 15 minutes. Afterwards, 150 μL of DPBS was added to each well, and the cells were centrifuged at 2500 RPM for 3 minutes. The supernatant was removed and the plate was chilled on ice for 2-3 minutes. While still on the ice, 100 μL of Perm III was added to each well, the wells mixed, and subsequently left on the ice for another 15 minutes. Afterwards, the plate was removed from the ice, 150 μL of DBPS was added to each well, and the cells centrifuged at 2700 RPM for 3 minutes. The supernatant was removed, and an additional 200 μL of was DPBS was added to each well, followed by centrifuging at 2700 RPM for 3 minutes, after which the supernatant was removed. The anti-Cbl-b antibody was diluted 1:200 in 1× Perm Wash buffer and 50 μL of the antibody mixture was added to each well and mixed. After addition, the plate was incubated for 35-45 minutes at room temperature. After incubation, 200 μL of DPBS was added to each wells, and the plate centrifuged at 2700 RPM for 3 minutes, followed by the removal of the supernatant. The washing step was repeated by adding 200 μL of DPBS to each wells followed by centrifuge at 2700 RPM for 3 minutes and removal of the supernatant. The a-Rabbit-AF488 antibody was diluted 1:1000 in Perm Wash buffer, 50 μL of the dilution added to each well, and mixed. After mixing, the plate was incubated for 30 minutes at room temperature in the dark. Subsequently, the supernatant was removed, and 200 μL of DBPS added to the cells, which were then centrifuged at 2900 RPM for 4 minutes. The supernatant was removed, and an additional 95 μL of DBPS was added to the wells and mixed. The cells were then transferred to a round bottom polypropylene plate and analyzed using FACS with the parameters below:
The concentration of an exemplary compound that leads to half maximal degradation (DC50) as well as the maximum degradation observed (Dmax, conventionally expressed as a percentage of control) is shown below in Table 2.

T1 sequence (Q13191 whole entry): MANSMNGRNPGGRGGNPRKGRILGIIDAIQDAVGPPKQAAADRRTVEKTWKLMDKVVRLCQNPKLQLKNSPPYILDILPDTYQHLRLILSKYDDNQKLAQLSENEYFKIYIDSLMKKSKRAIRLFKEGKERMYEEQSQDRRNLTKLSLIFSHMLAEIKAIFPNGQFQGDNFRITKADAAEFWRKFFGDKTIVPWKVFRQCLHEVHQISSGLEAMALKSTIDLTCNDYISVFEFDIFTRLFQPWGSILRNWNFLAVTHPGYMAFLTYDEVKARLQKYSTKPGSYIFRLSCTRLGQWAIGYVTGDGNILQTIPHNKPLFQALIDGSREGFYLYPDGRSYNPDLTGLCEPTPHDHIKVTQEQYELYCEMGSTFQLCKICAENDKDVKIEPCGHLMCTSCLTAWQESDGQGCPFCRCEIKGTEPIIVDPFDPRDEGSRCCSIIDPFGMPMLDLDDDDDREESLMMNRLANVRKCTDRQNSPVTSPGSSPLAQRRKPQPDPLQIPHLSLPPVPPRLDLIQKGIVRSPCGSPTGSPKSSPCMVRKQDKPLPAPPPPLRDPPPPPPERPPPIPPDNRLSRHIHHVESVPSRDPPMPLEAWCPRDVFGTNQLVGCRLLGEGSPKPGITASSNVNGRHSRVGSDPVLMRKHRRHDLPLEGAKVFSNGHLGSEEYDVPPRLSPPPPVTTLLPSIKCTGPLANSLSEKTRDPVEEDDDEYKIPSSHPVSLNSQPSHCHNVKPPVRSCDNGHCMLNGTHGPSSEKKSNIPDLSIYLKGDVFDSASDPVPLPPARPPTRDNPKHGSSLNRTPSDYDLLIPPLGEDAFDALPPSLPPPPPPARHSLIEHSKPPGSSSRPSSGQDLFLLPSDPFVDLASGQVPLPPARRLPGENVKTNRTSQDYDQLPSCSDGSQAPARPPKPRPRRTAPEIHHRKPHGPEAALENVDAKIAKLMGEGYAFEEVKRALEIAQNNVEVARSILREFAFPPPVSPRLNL

DC50 [nM] | Dmax [%] | SMILES
5 to 50 | 35 to 70 | Cc1cc(N2CCC(O[C@H]3CC[C@H](CN4CCC5(CC4)CN(c4cc6c(c(C(F)(F)F)c4)CN(c4cccc([C@]7(Cc8nncn8C)C[C@@H](C#N)C7)c4)C6=O)C5)CC3)CC2)c(F)c2c1C(=O)N(C1CCC(=O)NC1=O)C2 (stereo partly shown) [Example 187, (1r,3r)-3-[(4-methyl-4H-1,2,4-triazol-3-yl)methyl]-3-{3-[1-oxo-6-(7-{[(1r,4r)-4-({1-[2-(2,6-dioxopiperidin-3-yl)-4-fluoro-7-methyl-1-oxo-2,3-dihydro-1H-isoindol-5-yl]piperidin-4-yl}oxy)cyclohexyl]methyl}-2,7-diazaspiro[3.5]nonan-2-yl)-4-(trifluoromethyl)-2,3-dihydro-1H-isoindol-2-yl]phenyl}cyclobutane-1-carbonitrile]
5 to 50 | > 70 | Cc1cc(N2CCC(CN3CCC4(CC3)CN(c3cc5c(c(C(F)(F)F)c3)CN(c3cccc(C6(Cc7nncn7C)CCC6)c3)C5=O)C4)CC2)c(F)c2c1C(=O)N(C1CCC(=O)NC1=O)C2 (stereo not shown) [Example 190, 3-{4-fluoro-7-methyl-5-[4-({2-[2-(3-{1-[(4-methyl-4H-1,2,4-triazol-3-yl)methyl]cyclobutyl}phenyl)-3-oxo-7-(trifluoromethyl)-2,3-dihydro-1H-isoindol-5-yl]-2,7-diazaspiro[3.5]nonan-7-yl}methyl)piperidin-1-yl]-1-oxo-2,3-dihydro-1H-isoindol-2-yl}piperidine-2,6-dione]
5 to 50 | > 70 | Cn1cnnc1CC1(c2cccc(N3Cc4c(cc(N5CC(CC6CCN(c7ccc8c(c7)C(=O)N(C7CCC(=O)NC7=O)C8=O)CC6)C5)cc4C(F)(F)F)C3=O)c2)COC1 (stereo not shown) [Example 133, 2-(2,6-dioxopiperidin-3-yl)-5-[4-({1-[2-(3-{3-[(4-methyl-4H-1,2,4-triazol-3-yl)methyl]oxetan-3-yl}phenyl)-3-oxo-7-(trifluoromethyl)-2,3-dihydro-1H-isoindol-5-yl]azetidin-3-yl}methyl)piperidin-1-yl]-2,3-dihydro-1H-isoindole-1,3-dione]
5 to 50 | 35 to 70 | Cn1cnnc1CC1(c2cccc(N3Cc4c(cc(N5CC(CC6CN(c7ccc8c(c7)C(=O)N(C7CCC(=O)NC7=O)C8=O)C6)C5)cc4C(F)(F)F)C3=O)c2)COC1 (stereo not shown) [Example 120, 2-(2,6-dioxopiperidin-3-yl)-5-[3-({1-[2-(3-{3-[(4-methyl-4H-1,2,4-triazol-3-yl)methyl]oxetan-3-yl}phenyl)-3-oxo-7-(trifluoromethyl)-2,3-dihydro-1H-isoindol-5-yl]azetidin-3-yl}methyl)azetidin-1-yl]-2,3-dihydro-1H-isoindole-1,3-dione]
< 5 | > 70 | Cn1cnnc1CC1(c2cccc(N3Cc4c(cc(N5CC6(CCN(C[C@H]7CC[C@H](OC8CCN(c9ccc%10c(c9Cl)CN(C9CCC(=O)NC9=O)C%10=O)CC8)CC7)CC6)C5)cc4C(F)(F)F)C3=O)c2)COC1 (stereo partly shown) [Example 184, 3-[4-chloro-1-oxo-5-(4-{[(1r,4r)-4-({2-[2-(3-{3-[(4-methyl-4H-1,2,4-triazol-3-yl)methyl]oxetan-3-yl}phenyl)-3-oxo-7-(trifluoromethyl)-2,3-dihydro-1H-isoindol-5-yl]-2,7-diazaspiro[3.5]nonan-7-yl}methyl)cyclohexyl]oxy}piperidin-1-yl)-2,3-dihydro-1H-isoindol-2-yl]piperidine-2,6-dione]
< 5 | 35 to 70 | Cc1cc(N2CCC(O[C@H]3CC[C@H](CN4CCN(Cc5cc6c(c(C(F)(F)F)c5)CN(c5cccc([C@]7(Cc8nncn8C)C[C@@H](C#N)C7)c5)C6=O)CC4)CC3)CC2)c(F)c2c1C(=O)N(C1CCC(=O)NC1=O)C2 (stereo partly shown) [Example 205, (1r,3r)-3-[(4-methyl-4H-1,2,4-triazol-3-yl)methyl]-3-(3-{1-oxo-6-[(4-{[(1r,4r)-4-({1-[2-(2,6-dioxopiperidin-3-yl)-4-fluoro-7-methyl-1-oxo-2,3-dihydro-1H-isoindol-5-yl]piperidin-4-yl}oxy)cyclohexyl]methyl}piperazin-1-yl)methyl]-4-(trifluoromethyl)-2,3-dihydro-1H-isoindol-2-yl}phenyl)cyclobutane-1-carbonitrile]
5 to 50 | 35 to 70 | Cc1cc(N2CCC(CN3CC4(C3)CN(C3=CC5C(=O)N(c6cccc([C@]7(Cc8nncn8C)C[C@@H](C#N)C7)c6)CC5C(C(F)(F)F)=C3)C4)CC2)c(F)c2c1C(=O)N(C1CCC(=O)NC1=O)C2 (stereo partly shown) [Example 189, (1r,3r)-3-(3-{6-[6-({1-[2-(2,6-dioxopiperidin-3-yl)-4-fluoro-7-methyl-1-oxo-2,3-dihydro-1H-isoindol-5-yl]piperidin-4-yl}methyl)-2,6-diazaspiro[3.3]heptan-2-yl]-1-oxo-4-(trifluoromethyl)-2,3,3a,7a-tetrahydro-1H-isoindol-2-yl}phenyl)-3-[(4-methyl-4H-1,2,4-triazol-3-yl)methyl]cyclobutane-1-carbonitrile]
< 5 | > 70 | Cn1cnnc1CC1(c2cccc(N3Cc4c(cc(CN5CCCC(N6CCC(CN7CCC(CN8CCN(c9ccc%10c(c9)C(=O)N(C9CCC(=O)NC9=O)C%10=O)CC8)CC7)CC6)C5)cc4C(F)(F)F)C3=O)c2)COC1 (stereo not shown) [Example 109, 2-(2,6-dioxopiperidin-3-yl)-5-[4-({1-[(1′-{[2-(3-{3-[(4-methyl-4H-1,2,4-triazol-3-yl)methyl]oxetan-3-yl}phenyl)-3-oxo-7-(trifluoromethyl)-2,3-dihydro-1H-isoindol-5-yl]methyl}-[1,3′-bipiperidin]-4-yl)methyl]piperidin-4-yl}methyl)piperazin-1-yl]-2,3-dihydro-1H-isoindole-1,3-dione]
5 to 50 | < 35 | Cn1cnnc1CC1(c2cccc(N3Cc4c(cc(CN5CC6(CCN(CC7CCN(c8ccc9c(c8F)CN(C8CCC(=O)NC8=O)C9=O)CC7)CC6)C5)cc4C(F)(F)F)C3=O)c2)COC1 (stereo not shown) [Example 25, 3-(4-fluoro-5-{4-[(2-{[2-(3-{3-[(4-methyl-4H-1,2,4-triazol-3-yl)methyl]oxetan-3-yl}phenyl)-3-oxo-7-(trifluoromethyl)-2,3-dihydro-1H-isoindol-5-yl]methyl}-2,7-diazaspiro[3.5]nonan-7-yl)methyl]piperidin-1-yl}-1-oxo-2,3-dihydro-1H-isoindol-2-yl)piperidine-2,6-dione]
5 to 50 | > 70 | Cc1cc(N2CCC(O[C@H]3CC[C@H](CN4CCN(Cc5cc6c(c(C(F)(F)F)c5)CN(c5cccc(C7(Cc8nncn8C)CCC7)c5)C6=O)C(C)(C)C4)CC3)CC2)c(F)c2c1C(=O)N(C1CCC(=O)NC1=O)C2 (stereo partly shown) [Example 224, 3-[4-fluoro-7-methyl-1-oxo-5-(4-{[(1r,4r)-4-[(3,3-dimethyl-4-{[2-(3-{1-[(4-methyl-4H-1,2,4-triazol-3-yl)methyl]cyclobutyl}phenyl)-3-oxo-7-(trifluoromethyl)-2,3-dihydro-1H-isoindol-5-yl]methyl}piperazin-1-yl)methyl]cyclohexyl]oxy}piperidin-1-yl)-2,3-dihydro-1H-isoindol-2-yl]piperidine-2,6-dione]
< 5 | > 70 | Cn1cnnc1CC1(c2cccc(N3Cc4c(cc(N5CC6(CCN(C[C@H]7CC[C@H](OC8CCN(c9ccc%10c(c9F)CN(C9CCC(=O)NC9=O)C%10=O)CC8)CC7)CC6)C5)cc4C(F)(F)F)C3=O)c2)COC1 (stereo partly shown) [Example 7, 3-[4-fluoro-1-oxo-5-(4-{[(1r, 4r)-4-({2-[2-(3-{3-[(4-methyl-4H-1,2,4-triazol-3-yl)methyl]oxetan-3-yl}phenyl)-3-oxo-7-(trifluoromethyl)-2,3-dihydro-1H-isoindol-5-yl]-2,7-diazaspiro [3.5]nonan-7-yl}methyl)cyclohexyl]oxy}piperidin-1-yl)-2,3-dihydro-1H-isoindol-2-yl]piperidine-2,6-dione]
